According to ChEMBL document CHEMBL1201862, “PubChem BioAssay data set” (2004):
Active and inactive are the calls of the source.

Columns and labels:
[1] = system: Streptococcus sp. 'group A'; test: Streptococcus pyogenes SK(-)GAS viability under kanamycin – luminescence, BacTiterGlo, confirmation, counter-screen for streptokinase expression inhibitor project, dose response (AID 1900); format: functional, organism-based
[2] = target: T1, Long-chain-fatty-acid--AMP ligase FadD28 (Mycobacterium tuberculosis, UniProt P9WQ59); test: Fluorescence polarization aasay to screen for inhibitors that compete for the binding of FadD28 to a bisubstrate Measured in Biochemical System Using Plate Reader - 2147-01_Inhibitor_Dose_CherryPick_Activity.; format: functional, Mycobacterium tuberculosis H37Rv
T1 sequence (P9WQ59 whole entry): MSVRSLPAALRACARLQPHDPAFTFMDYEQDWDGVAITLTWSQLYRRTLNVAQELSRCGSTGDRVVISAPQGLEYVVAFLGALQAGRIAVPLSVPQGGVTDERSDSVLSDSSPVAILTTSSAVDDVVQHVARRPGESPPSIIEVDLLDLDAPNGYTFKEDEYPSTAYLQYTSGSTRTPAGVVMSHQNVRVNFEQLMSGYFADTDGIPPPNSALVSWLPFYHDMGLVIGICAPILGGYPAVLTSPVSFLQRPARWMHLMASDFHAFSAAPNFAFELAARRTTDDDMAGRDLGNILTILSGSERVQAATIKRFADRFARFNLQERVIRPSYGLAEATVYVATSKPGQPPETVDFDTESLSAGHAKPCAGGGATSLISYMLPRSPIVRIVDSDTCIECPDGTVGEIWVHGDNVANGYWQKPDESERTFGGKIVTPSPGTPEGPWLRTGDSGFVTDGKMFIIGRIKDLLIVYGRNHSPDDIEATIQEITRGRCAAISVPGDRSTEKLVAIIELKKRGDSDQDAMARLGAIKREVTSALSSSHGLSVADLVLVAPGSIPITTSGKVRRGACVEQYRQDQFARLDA

Streptokinase A = target: T2, Streptokinase A (Streptococcus pyogenes serotype M1, UniProt P10520); test: viability-normalized secreted streptokinase activity reduction – plasminogen activation absorbance, OD405, dose response (AID 1914); format: functional, Streptococcus pyogenes M1 GAS;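 further: secreted streptokinase activity via plasminogen activation per viability signal from cell pellet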
T2 sequence (P10520 whole entry): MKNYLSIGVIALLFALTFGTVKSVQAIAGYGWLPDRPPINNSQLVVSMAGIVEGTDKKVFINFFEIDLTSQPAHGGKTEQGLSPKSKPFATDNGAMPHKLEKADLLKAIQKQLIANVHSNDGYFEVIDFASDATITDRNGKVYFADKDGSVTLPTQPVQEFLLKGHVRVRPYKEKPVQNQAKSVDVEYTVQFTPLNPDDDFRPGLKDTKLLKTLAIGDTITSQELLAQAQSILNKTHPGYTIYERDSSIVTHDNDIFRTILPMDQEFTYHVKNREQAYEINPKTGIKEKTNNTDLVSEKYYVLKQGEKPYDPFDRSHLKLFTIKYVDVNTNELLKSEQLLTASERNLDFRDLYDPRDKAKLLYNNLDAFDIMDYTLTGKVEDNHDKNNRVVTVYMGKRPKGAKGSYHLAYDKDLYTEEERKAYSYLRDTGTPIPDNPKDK

[3] = viability of uninfected HEp-2 cells – cell-based, HTS, cytotoxicity control for RSV inhibitor project, dose response (AID 2410); format: functional; conditions: human respiratory syncytial virus
Streptococcus = test: GAS UMAA2166 growth inhibition – luminescence, BacTiterGlo, counter-screen for streptokinase expression inhibitor project, dose response (AID 1915); format: functional, organism-based;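 further: potency for reduction of bacterial viability or growth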
[4] = target: Dual specificity tyrosine-phosphorylation-regulated kinase 1A (Rattus norvegicus, UniProt Q63470); format: biochemical, Homo sapiens
Fatty acid synthase [5] = target: T3, Fatty acid synthase (Homo sapiens, UniProt P49327); test: inhibition of human FAS-TE enzyme activity – biochemical, kinetic fluorescence intensity, dose response (AID 624326); format: functional;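 further: rate of fluorescence rise from hydrolysis of a fluorogenic O-methyl fluorescein ester substrate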
Fatty acid synthase [6] = target: T3, Fatty acid synthase; test: inhibition of human FAS-TE enzyme activity – biochemical, endpoint fluorescence intensity, uHTS hits, dose response (AID 624327); format: functional;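 further: fluorescence from hydrolysis of an O-methyl fluorescein acyl ester substrate by the enzyme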
Beta-galactosidase = Beta-galactosidase (Escherichia coli, UniProt Q8VNN2); test: PubChem AID 485352; format: functional
[7] = target: T4, Replicative DNA helicase DnaB (Mycobacterium tuberculosis, UniProt P9WMR3); test: DnaB intein splicing inhibitors, dose response, biochemical, cell-free fluorescence (AID 449749); format: functional
T4 sequence (P9WMR3 whole entry): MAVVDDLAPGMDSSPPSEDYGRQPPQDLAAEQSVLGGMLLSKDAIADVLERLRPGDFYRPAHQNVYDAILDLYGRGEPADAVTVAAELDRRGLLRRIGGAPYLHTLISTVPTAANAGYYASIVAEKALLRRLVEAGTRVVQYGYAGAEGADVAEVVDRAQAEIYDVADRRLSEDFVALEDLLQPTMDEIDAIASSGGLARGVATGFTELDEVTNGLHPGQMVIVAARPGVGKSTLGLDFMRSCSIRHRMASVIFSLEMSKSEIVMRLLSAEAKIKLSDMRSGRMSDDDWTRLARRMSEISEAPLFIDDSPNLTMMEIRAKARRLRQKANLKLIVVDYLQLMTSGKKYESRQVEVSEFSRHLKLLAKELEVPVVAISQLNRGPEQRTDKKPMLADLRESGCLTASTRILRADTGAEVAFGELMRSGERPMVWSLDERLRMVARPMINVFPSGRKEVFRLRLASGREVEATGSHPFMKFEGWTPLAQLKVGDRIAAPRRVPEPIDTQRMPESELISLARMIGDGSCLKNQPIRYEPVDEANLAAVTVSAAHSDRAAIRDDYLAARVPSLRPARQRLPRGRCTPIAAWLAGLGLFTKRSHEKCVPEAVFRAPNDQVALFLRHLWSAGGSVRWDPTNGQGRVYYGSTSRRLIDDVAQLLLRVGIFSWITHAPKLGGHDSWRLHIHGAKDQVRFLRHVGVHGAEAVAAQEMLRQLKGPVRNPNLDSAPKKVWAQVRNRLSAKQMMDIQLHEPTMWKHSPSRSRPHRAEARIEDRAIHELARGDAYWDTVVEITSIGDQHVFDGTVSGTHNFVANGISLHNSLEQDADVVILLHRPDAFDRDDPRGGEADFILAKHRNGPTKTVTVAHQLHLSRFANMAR

Protein RecA = target: T5, Protein RecA (Mycobacterium tuberculosis, UniProt P9WHJ3); test: Fluorescence Cell-Free Homogeneous Dose Retest to Identify Inhibitors of RecA-Intein Splicing Activity. [Related pubchem assays (depositor defined):AID2097, AID2223, AID489010, AID492950]; format: functional
T5 sequence (P9WHJ3 whole entry): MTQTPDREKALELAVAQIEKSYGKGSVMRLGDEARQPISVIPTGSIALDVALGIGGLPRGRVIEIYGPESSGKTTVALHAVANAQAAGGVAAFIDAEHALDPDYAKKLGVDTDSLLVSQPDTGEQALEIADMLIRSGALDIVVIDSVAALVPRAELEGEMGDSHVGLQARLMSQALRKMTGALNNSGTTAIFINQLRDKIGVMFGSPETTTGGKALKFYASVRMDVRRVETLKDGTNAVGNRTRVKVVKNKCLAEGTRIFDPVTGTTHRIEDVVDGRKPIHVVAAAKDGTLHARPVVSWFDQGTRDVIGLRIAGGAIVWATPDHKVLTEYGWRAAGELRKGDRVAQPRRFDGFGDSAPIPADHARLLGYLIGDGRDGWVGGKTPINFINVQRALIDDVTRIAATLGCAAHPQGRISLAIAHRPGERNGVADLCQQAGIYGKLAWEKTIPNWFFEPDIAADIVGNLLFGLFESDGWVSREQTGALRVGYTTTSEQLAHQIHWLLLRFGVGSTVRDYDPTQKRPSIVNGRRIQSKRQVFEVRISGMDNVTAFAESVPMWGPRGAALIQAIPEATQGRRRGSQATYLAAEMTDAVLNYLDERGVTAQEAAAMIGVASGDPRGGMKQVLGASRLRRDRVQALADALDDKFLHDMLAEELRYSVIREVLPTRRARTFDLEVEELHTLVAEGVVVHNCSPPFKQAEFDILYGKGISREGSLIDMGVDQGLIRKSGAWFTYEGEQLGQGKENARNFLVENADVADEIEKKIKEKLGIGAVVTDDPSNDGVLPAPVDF

[8] = target: T6, Type-1 angiotensin II receptor (Homo sapiens, UniProt P30556); test: antagonism of angiotensin II type 1 receptor – cell-based, uHTS hits, selectivity assay for APJ receptor antagonist project, dose response (AID 463214); format: functional;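 further: antagonist potency against angiotensin II stimulated AT1 response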
T6 sequence (P30556 whole entry): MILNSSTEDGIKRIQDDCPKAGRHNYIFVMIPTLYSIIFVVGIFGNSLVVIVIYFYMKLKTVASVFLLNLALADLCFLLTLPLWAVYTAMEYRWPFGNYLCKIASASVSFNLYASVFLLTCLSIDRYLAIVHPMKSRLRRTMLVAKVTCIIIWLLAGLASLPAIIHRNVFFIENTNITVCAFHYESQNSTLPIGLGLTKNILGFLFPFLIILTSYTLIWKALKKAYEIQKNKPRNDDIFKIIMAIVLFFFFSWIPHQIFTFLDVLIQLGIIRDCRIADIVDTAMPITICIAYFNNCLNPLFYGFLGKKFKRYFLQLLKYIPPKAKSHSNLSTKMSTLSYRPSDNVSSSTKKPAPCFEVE

[9] = HEK-293T viability loss after treatment – luminescence, T-cell screen hits, cytotoxicity control for TCR NF-kB inhibitor project, dose response (AID 489026); format: functional, cell-based;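 further: cells exposed to compound about 14 hours before the viability readout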

T3 sequence (P49327 whole entry): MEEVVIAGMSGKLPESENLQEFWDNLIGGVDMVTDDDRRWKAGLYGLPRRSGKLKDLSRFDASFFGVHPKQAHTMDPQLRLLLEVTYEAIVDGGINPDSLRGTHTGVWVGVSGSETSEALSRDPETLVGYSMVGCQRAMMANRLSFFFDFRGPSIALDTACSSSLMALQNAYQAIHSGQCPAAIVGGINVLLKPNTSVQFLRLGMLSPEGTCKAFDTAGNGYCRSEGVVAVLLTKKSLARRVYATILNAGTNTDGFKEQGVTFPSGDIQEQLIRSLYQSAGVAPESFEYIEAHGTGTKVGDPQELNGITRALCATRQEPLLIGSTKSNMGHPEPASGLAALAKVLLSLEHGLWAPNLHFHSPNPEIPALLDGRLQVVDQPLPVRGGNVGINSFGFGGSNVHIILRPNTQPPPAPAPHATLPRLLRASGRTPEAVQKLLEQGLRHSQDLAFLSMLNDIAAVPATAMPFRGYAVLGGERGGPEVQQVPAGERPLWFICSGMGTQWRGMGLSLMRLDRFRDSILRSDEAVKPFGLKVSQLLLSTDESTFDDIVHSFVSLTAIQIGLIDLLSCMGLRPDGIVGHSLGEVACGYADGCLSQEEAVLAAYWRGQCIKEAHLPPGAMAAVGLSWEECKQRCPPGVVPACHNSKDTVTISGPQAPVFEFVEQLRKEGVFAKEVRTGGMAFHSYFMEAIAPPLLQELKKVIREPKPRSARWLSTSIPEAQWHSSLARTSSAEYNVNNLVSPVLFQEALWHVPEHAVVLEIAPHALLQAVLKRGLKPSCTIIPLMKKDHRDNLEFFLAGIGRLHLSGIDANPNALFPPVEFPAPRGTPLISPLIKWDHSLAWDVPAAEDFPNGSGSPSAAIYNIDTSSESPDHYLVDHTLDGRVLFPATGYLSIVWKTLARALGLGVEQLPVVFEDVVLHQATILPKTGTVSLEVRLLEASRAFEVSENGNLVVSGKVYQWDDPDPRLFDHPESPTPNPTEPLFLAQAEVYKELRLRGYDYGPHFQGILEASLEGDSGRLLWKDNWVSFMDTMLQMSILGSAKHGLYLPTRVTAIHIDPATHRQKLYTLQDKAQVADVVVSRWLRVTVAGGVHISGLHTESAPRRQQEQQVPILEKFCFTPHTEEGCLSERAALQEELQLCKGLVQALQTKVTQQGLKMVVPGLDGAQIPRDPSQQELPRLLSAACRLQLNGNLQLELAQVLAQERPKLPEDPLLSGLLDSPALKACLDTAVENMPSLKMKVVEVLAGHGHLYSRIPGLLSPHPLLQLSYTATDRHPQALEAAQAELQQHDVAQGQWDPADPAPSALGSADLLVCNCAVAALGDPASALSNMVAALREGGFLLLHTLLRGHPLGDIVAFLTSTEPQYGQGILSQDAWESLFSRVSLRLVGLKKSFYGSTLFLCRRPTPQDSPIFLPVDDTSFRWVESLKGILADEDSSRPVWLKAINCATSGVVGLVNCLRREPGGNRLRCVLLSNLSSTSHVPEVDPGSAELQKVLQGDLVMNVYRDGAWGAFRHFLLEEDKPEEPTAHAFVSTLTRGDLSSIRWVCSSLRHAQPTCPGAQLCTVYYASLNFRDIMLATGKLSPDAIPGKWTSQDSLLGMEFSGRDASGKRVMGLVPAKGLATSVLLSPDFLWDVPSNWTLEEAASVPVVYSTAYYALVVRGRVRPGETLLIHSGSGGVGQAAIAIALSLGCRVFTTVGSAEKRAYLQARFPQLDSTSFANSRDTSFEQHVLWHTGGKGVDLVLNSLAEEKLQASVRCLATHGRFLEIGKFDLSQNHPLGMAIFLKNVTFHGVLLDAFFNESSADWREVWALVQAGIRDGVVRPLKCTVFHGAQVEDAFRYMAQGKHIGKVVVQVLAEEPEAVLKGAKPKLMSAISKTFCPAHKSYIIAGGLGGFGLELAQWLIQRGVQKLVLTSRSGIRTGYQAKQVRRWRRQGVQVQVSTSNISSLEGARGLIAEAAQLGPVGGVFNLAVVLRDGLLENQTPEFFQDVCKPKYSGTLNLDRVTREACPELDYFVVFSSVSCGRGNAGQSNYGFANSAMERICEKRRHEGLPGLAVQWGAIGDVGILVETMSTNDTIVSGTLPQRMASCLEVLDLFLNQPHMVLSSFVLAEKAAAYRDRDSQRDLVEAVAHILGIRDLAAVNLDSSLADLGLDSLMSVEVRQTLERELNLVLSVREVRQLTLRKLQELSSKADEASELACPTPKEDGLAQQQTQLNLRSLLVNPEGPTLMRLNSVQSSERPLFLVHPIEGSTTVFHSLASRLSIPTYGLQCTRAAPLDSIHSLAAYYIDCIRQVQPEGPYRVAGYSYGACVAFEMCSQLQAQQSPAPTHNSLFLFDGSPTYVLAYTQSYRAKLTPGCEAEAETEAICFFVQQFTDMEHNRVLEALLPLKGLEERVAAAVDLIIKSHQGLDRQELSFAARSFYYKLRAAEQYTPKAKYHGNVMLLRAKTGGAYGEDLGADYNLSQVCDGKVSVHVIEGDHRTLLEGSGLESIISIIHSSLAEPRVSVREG
Beta-galactosidase, sequence (Q8VNN2 whole entry): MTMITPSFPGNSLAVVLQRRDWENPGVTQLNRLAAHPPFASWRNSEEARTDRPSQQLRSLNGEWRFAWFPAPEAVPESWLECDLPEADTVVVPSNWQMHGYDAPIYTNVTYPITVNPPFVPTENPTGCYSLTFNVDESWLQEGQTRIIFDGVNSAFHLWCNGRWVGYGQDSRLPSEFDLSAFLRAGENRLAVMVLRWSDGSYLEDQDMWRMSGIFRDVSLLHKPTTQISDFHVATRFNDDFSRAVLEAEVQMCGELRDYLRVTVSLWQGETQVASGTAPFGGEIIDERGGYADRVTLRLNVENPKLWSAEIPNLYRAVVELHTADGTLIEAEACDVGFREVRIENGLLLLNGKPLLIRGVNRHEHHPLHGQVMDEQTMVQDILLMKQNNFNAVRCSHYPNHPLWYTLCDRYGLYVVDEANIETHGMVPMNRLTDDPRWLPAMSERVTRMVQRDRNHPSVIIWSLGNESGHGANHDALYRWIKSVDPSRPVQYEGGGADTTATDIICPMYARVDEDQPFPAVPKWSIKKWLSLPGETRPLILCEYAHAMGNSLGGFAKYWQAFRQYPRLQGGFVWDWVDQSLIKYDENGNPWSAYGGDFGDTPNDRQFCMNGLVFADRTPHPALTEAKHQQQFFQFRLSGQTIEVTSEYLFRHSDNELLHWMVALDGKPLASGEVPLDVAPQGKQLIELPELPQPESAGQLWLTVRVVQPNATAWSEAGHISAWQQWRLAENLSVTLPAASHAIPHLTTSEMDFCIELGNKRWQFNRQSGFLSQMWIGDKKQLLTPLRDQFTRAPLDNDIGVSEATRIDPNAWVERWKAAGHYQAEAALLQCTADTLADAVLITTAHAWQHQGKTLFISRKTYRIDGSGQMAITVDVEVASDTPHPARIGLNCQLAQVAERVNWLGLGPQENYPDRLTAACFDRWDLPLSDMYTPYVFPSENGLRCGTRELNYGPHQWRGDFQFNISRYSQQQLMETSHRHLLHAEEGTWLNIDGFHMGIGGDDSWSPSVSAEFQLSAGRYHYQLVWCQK

Question: With COc1ccc2c(c1)C(=NNc1ccc(C(=O)O)cc1)c1cc(OC)ccc1-2 as the compound, how does the EC50 [1] read?
Answer: 6.28 µM (active)

Question: And the AC50 [2]?
Answer: 88 µM (active)

Question: What about the EC50 (Streptokinase A) of the same compound?
Answer: > 150 µM (not active)

Question: And the IC50 (cells)?
Answer: 10.8 µM (active)

Question: What about the CC50 [3] of the same compound?
Answer: 13.7 µM (active)

Question: And the EC50 (Streptococcus)?
Answer: 12.4 µM (active)

Question: What about the AC50 [4] of the same compound?
Answer: 0.02 µM (active)

Question: Which AC50 [2] does the source give for CCC(C(=O)NC1CCCCC1)n1c(SCc2ccccc2F)nc2ccncc21 (stereo not drawn) here?
Answer: > 100 µM (inactive)

Question: Which AC50 [2] does the source give for O=C(CN1C(=O)S/C(=C\c2cc(Cl)c(O)c(Cl)c2)C1=O)Nc1ccccc1 here?
Answer: 3.49 µM (active)

Question: Which IC50 (Fatty acid synthase [5]) does the source give for O=C(N/C(=C\c1ccc(Br)cc1)C(=O)N1CCOCC1)c1ccc([N+](=O)[O-])cc1 here?
Answer: 0.286 µM (active)

Question: What about the IC50 (Fatty acid synthase [6]) of the same compound?
Answer: 0.262 µM (active)

Question: What does the source list for CCCSc1cc(NCCOC(=O)CCC)c([N+](=O)[O-])c2nonc12?
Answer: IC50 (Fatty acid synthase [5]): 16.5 µM (active); EC50 (Beta-galactosidase): > 40 µM (inactive); AC50 [7]: 55 µM (active); EC50 (Protein RecA): 4.48 µM (active); IC50 (Fatty acid synthase [6]): 16.3 µM (active); CC50 [3]: 14.8 µM (active); IC50 [8]: 11 µM (active)

Question: For COc1ccc(OC)c(COC(=O)c2cc([N+](=O)[O-])ccc2N2CCOCC2)c1, which IC50 (Fatty acid synthase [5]) is on record?
Answer: 15.4 µM (active)

Question: What about the IC50 (Fatty acid synthase [6]) of the same compound?
Answer: 11.4 µM (active)

Question: What about the IC50 [9] of the same compound?
Answer: > 80 µM (inactive)

Question: What does the source list for Cc1cccc2cc(/C=N/Nc3ccc(C(=O)O)cc3)c(Cl)nc12?
Answer: IC50 (Fatty acid synthase [5]): 18.3 µM (active); IC50 (Fatty acid synthase [6]): 27.4 µM (inactive)
